“And” between values parts separate entries of the source, which are not always exact repeats. Identical values can stand only once. Toxic doses and inconclusive results are not listed. Peptide text beside a SMILES is read from it. * marks the point of attachment. Cbz = O=C(OCc1ccccc1)*; CH2Cl = ClC*

The test concerns P388 leukemia ip, CD2F1 mice, survival T/C. Kind of test: NCI In Vivo Anticancer Drug Screen. Data for tumor model P388 Leukemia (intraperitoneal) in CD2F1 (CDF1) mice. To be noted: endpoint: median survival time, higher = longer survival. In outline: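 Mice carrying the transplanted tumor received test compound or vehicle. Survival was recorded in each group, and the value is the treated-group measurement divided by that of the vehicle-treated control group.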

The mark [1] stands for this setting: dose: 60.0 mg/kg/injection, schedule: Q01DX005 (ip), vehicle: saline with Tween-80.
The mark [2] stands for this setting: dose: 240.0 mg/kg/injection, schedule: Q01DX005 (ip), vehicle: saline with Tween-80.
Where [3] appears, read: dose: 25.0 mg/kg/injection, schedule: Q04DX003 (ip), vehicle: other.
Setting [4] is: dose: 200.0 mg/kg/injection, schedule: Q04DX003 (ip), vehicle: saline with Tween-80.
Setting [5] is: dose: 50.0 mg/kg/injection, schedule: Q01DX009 (ip), vehicle: saline.
Setting [6] is: dose: 100.0 mg/kg/injection, schedule: Q01DX009 (ip), vehicle: saline.
The mark [7] stands for this setting: dose: 200.0 mg/kg/injection, schedule: Q01DX009 (ip), vehicle: saline.
Where [8] appears, read: dose: 50.0 mg/kg/injection, schedule: Q01DX005 (ip), vehicle: saline.
[9] abbreviates: dose: 100.0 mg/kg/injection, schedule: Q01DX005 (ip), vehicle: saline.
Where [10] appears, read: dose: 200.0 mg/kg/injection, schedule: Q01DX005 (ip), vehicle: saline.
Setting [11] is: dose: 100.0 mg/kg/injection, schedule: Q01DX001 (ip), vehicle: saline.
Setting [12] is: dose: 200.0 mg/kg/injection, schedule: Q01DX001 (ip), vehicle: saline.
Where [13] appears, read: dose: 400.0 mg/kg/injection, schedule: Q01DX001 (ip), vehicle: saline.
[14] abbreviates: dose: 50.0 mg/kg/injection, schedule: Q01DX005 (ip), vehicle: saline with Tween-80.
The mark [15] stands for this setting: dose: 100.0 mg/kg/injection, schedule: Q01DX005 (ip), vehicle: saline with Tween-80.
The mark [16] stands for this setting: dose: 200.0 mg/kg/injection, schedule: Q01DX005 (ip), vehicle: saline with Tween-80.
Where [17] appears, read: dose: 120.0 mg/kg/injection, schedule: Q01DX005 (ip), vehicle: saline with Tween-80.
Setting [18] is: dose: 12.5 mg/kg/injection, schedule: Q01DX009 (ip), vehicle: saline.
The mark [19] stands for this setting: dose: 25.0 mg/kg/injection, schedule: Q01DX009 (ip), vehicle: saline.

As to `CCOc1cc2c(cc1Cc1c(OC)cc(OC)cc1OC)OCO2`, the T/C was 90 % of control under setting [1] and 99 % of control under setting [2].

Consider `Cc1c2ccccc2c(C)c2c1cc[n+]1ccccc21`, for which the T/C is 105 % of control (dose: 6.25 mg/kg/injection, schedule: Q04DX003 (ip), vehicle: other); 103 % of control (dose: 12.5 mg/kg/injection, schedule: Q04DX003 (ip), vehicle: other); 99 % of control under setting [3].

As for `COc1ccc(C2CCc3cc4c(cc3C2=O)OCO4)cc1OC` (configuration not stated), the T/C under setting [4] was 90 % of control.

On to `CCOC(=O)CNC1=NCCO1`, for which the T/C by setting is: under setting [5], 109 % of control; under setting [6], 107 % of control; under setting [7], 102 % of control; (dose: 400.0 mg/kg/injection, schedule: Q01DX009 (ip), vehicle: saline) 106 % of control.

`CN(C)CCCN1CCC2(CCCCC2)CC1`: the T/C reads like this: under setting [8], 94 % of control; under setting [9], 98 % of control; under setting [10], 109 % of control.

In the case of `CCc1c(O)c2c([nH]c1=O)SC(C)(C)CC2=NCC(C)C`, the T/C under setting [8] was 93 % of control, the T/C under setting [9] is 96 % of control and the T/C under setting [10] was 94 % of control.

Take `COC(=O)C1(C)CCCC2(C)c3cc(OC(C)=O)c(C(C)C)cc3CCC12` (configuration not stated): the T/C under setting [11] was 100 % of control, the T/C under setting [12] is 106 % of control and the T/C under setting [13] is 105 % of control.

For the compound `O=P(OCC(Br)CBr)(OCC(Br)CBr)OCC(Br)CBr` (configuration not stated), the T/C is 112 % of control and 114 % of control (dose: 100.0 mg/kg/injection, schedule: Q01DX009 (ip), vehicle: saline with Tween-80); 106 % of control and 109 % of control (dose: 200.0 mg/kg/injection, schedule: Q01DX009 (ip), vehicle: saline with Tween-80); 103 % of control and 106 % of control (dose: 400.0 mg/kg/injection, schedule: Q01DX009 (ip), vehicle: saline with Tween-80); 109 % of control and 94 % of control (dose: 800.0 mg/kg/injection, schedule: Q01DX009 (ip), vehicle: saline with Tween-80).

In the case of `Nc1ccc(S(=O)c2ccc(N)cc2)cc1`, the T/C reads like this: (dose: 6.25 mg/kg/injection, schedule: Q04DX003 (ip), vehicle: saline) 118 % of control; (dose: 12.5 mg/kg/injection, schedule: Q04DX003 (ip), vehicle: saline) 107 % of control; (dose: 25.0 mg/kg/injection, schedule: Q04DX003 (ip), vehicle: saline) 104 % of control; (dose: 50.0 mg/kg/injection, schedule: Q04DX003 (ip), vehicle: saline) 109 % of control.

`O=S1(=O)CCC(N(/N=C/c2ccco2)c2ccccc2)C1` (configuration not stated): the T/C by setting is: under setting [14], 95 % of control; under setting [15], 101 % of control; under setting [16], 101 % of control.

As for `CN(C)c1ccc2c(c1)c1cc(N(C)C)ccc1n2Cc1ccccc1`, the T/C under setting [1] is 102 % of control, the T/C under setting [17] was 94 % of control and the T/C under setting [2] is 98 % of control.

For the compound `CSc1nc(SC)c2c(CN=[N+]=[N-])c(Br)n(Cc3ccccc3)c2n1`, the T/C (dose: 3.13 mg/kg/injection, schedule: Q01DX001 (ip), vehicle: saline with Tween-80) was 98 % of control; the T/C (dose: 6.25 mg/kg/injection, schedule: Q01DX001 (ip), vehicle: saline with Tween-80) was 86 % of control; the T/C (dose: 25.0 mg/kg/injection, schedule: Q01DX001 (ip), vehicle: saline with Tween-80) was 86 % of control.

`CCOC(=O)N1c2ccccc2C=CC1OCC` (configuration not stated): the T/C by setting is: (dose: 6.0 mg/kg/injection, schedule: Q04DX003 (ip), vehicle: other) 95 % of control; (dose: 12.0 mg/kg/injection, schedule: Q04DX003 (ip), vehicle: other) 100 % of control; under setting [3], 100 % of control.

For the compound `CCOC(=O)c1c2c(n(-c3ccccc3)c1C)C(=O)c1ccccc1C2=O`, the T/C is 99 % of control under setting [5], 92 % of control under setting [6] and 98 % of control under setting [7].

As to `C(=C\c1cc2ccc(C3=NCCN3)cc2[nH]1)/c1cc2ccc(C3=NCCN3)cc2[nH]1`, the T/C is 162 % of control (dose: 100.0 mg/kg/injection, schedule: Q04DX003 (ip), vehicle: saline); 162 % of control (dose: 200.0 mg/kg/injection, schedule: Q04DX003 (ip), vehicle: saline); 271 % of control (dose: 400.0 mg/kg/injection, schedule: Q04DX003 (ip), vehicle: saline).

Consider `C1OC1CO[C@H]1CO[C@H]2[C@@H]1OC[C@@H]2OCC1CO1` (some centres not stated), for which, under “dose: 600.0 mg/kg/injection, schedule: Q04DX003 (ip), vehicle: saline”, the T/C was 172 % of control.

With `CC(CN1CCCCC1)NC(=O)c1scnc1-c1ccccc1` (configuration not stated), the T/C is, setting by setting: under setting [1], 116 % of control; under setting [17], 98 % of control.

For the compound `COCCc1nnnn1C`, the T/C under setting [14] was 102 % of control, the T/C under setting [15] was 98 % of control and the T/C under setting [16] is 114 % of control.

With `NCC(=O)NCC(=O)O` (H-Gly-Gly-OH), the T/C reads like this: under setting [8], 100 % of control; under setting [9], 104 % of control; under setting [10], 100 % of control.

As for `Cc1cc(N2C(=O)CCSC2=S)ccc1F`, the T/C is 101 % of control under setting [18]; 108 % of control under setting [19]; 108 % of control under setting [5]; 91 % of control (dose: 50.0 mg/kg/injection, schedule: Q01DX009 (ip), vehicle: suspension in saline); 94 % of control (dose: 100.0 mg/kg/injection, schedule: Q01DX009 (ip), vehicle: suspension in saline); 88 % of control (dose: 200.0 mg/kg/injection, schedule: Q01DX009 (ip), vehicle: suspension in saline).

With `O=C1NC(=O)c2cc(C(F)(F)F)ccc21`, the T/C is 95 % of control (dose: 3.0 mg/kg/injection, schedule: Q01DX009 (ip), vehicle: saline with Tween-80); 104 % of control (dose: 6.0 mg/kg/injection, schedule: Q01DX009 (ip), vehicle: saline with Tween-80); 90 % of control (dose: 12.0 mg/kg/injection, schedule: Q01DX009 (ip), vehicle: saline with Tween-80).

As to `O=[N+]([O-])c1cc([N+](=O)[O-])c2ccccc2c1NS(=O)(=O)c1ccc(Br)cc1`, the T/C is 103 % of control (dose: 25.0 mg/kg/injection, schedule: Q01DX009 (ip), vehicle: saline with Tween-80) and 117 % of control (dose: 50.0 mg/kg/injection, schedule: Q01DX009 (ip), vehicle: saline with Tween-80).

For the compound `CC(NNC(=S)N1CCCC1)c1cc2ccccc2cn1` (configuration not stated), the T/C was 104 % of control and 108 % of control (dose: 25.0 mg/kg/injection, schedule: Q01DX005 (ip), vehicle: saline with Tween-80); 110 % of control and 123 % of control under setting [14]; 104 % of control under setting [15].

On to `CC(C)CC(NC(=O)OCc1ccccc1)C(=O)NC(Cc1ccccc1)C(=O)CCl` (stereo not drawn) (Cbz-Leu-Phe-CH2Cl; configuration not given here), for which the T/C (dose: 6.25 mg/kg/injection, schedule: Q01DX009 (ip), vehicle: saline) was 107 % of control; the T/C under setting [18] is 106 % of control; the T/C under setting [19] was 111 % of control; the T/C under setting [5] was 113 % of control; the T/C under setting [6] is 120 % of control.

Take `O=c1ccnc2sccn12`: the T/C by setting is: under setting [11], 109 % of control; under setting [12], 116 % of control; under setting [13], 101 % of control.

For `O=C1NC(=O)C2(OC3c4ccccc4C=NN3C3=C2C(=O)CC3)C(=O)N1` (configuration not stated), the T/C is 101 % of control (dose: 100.0 mg/kg/injection, schedule: Q01DX001 (ip), vehicle: saline with Tween-80); 100 % of control (dose: 200.0 mg/kg/injection, schedule: Q01DX001 (ip), vehicle: saline with Tween-80); 104 % of control (dose: 400.0 mg/kg/injection, schedule: Q01DX001 (ip), vehicle: saline with Tween-80).

`COC(=O)C1CC(c2ccccc2)N(c2ccccc2)O1` (configuration not stated) (tested in a mixture with another compound): the T/C by setting is: (dose: 100.0 mg/kg/injection, schedule: Q04DX003 (ip), vehicle: saline with Tween-80) 95 % of control; under setting [4], 96 % of control; (dose: 400.0 mg/kg/injection, schedule: Q04DX003 (ip), vehicle: saline with Tween-80) 94 % of control.

(Values after PubChem BioAssay AID330 (DTP/NCI, 2004).)
